Experiment: gradient 5% acetonitrile 3 min, to 50% in 2 min, to 85% in 15 min, held 3 min, 100 µL/min
Conditions: column: Zorbax Extend-C18 2.1 x 50 mm; eluents: water / acetonitrile, 0.1% formic acid
Method in brief: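 Retention time was recorded from adduct peaks, which were picked computationally and each inspected manually. Pure standards ran in mixtures of ~100 molecules on HPLC coupled to a quadrupole time-of-flight mass spectrometer, in positive and negative ionization mode, through a Zorbax Extend-C18 column (2.1 × 50 mm, 1.8 μm) at 100 μL/min. Eluents were water and acetonitrile, each with 0.1% formic acid.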

Row | SMILES | RP-LC retention time [s]
1 | Cc1nc(C)c(C(=O)N2CCC(C(=O)N3CCCCCCNC(=O)CC3)CC2)s1 | 602
2 | Cc1ccc2c(=O)c(C(=O)N3CCCCC3)cn(CC(=O)NC3CCCC3)c2n1 | 694
3 | CCC(C)(C)C(=O)NC1CCN(C2=NS(=O)(=O)C(c3ccc(C(C)C)cc3)=C2C)CC1 | 1020
4 | CS(=O)(=O)N1CCN(C(=O)c2ccc(-n3cccn3)nn2)CC1 | 601
5 | Cc1ccc(C(=O)NCCn2c(C)cnc2C2CC2)s1 | 584
6 | Nc1nc(N2CCN(C3CCCCC3)CC2)ncc1C(=O)Nc1ccccc1 | 624
7 | CC(C)(C)NC(=O)C1CCN(S(=O)(=O)c2cc(-c3noc(C4CCC4)n3)cs2)CC1 | 1030
8 | Cc1ccc(CNC(=O)C2(C)CCCN(C(=O)Nc3ccc(Cl)cc3)C2)cc1 (stereo unspecified) | 1010
9 | CCn1cc(-c2nc(C)c(C(=O)NCc3cccc(C)c3)s2)c2cccnc21 | 989
10 | O=C(Nc1ccc(N2CCN(Cc3ccc(F)cc3)C2=O)nc1)c1ccsc1 | 787
11 | O=C(NCCc1ccccc1)c1c(O)c2sccc2n(Cc2ccccc2)c1=O | 1270
12 | CCN(CC)C(=O)c1ccc2c(c1)N(CC(=O)NCCC1=CCCCC1)C(=O)CS2 | 864
13 | COCCNC(=O)C1CCCN(c2ncnc3c2oc2ccccc23)C1 (stereo unspecified) | 633
14 | CC1CN(C(=O)Cn2cc(SCC(=O)N3CCCCCC3)c3ccccc32)CC(C)O1 (stereo unspecified) | 889
15 | CCOc1ccc(-c2nc(CN3CCN(C(=O)NC4CCCC4)CC3)c(C)o2)cc1 | 703
16 | O=C(NCCN1CCOCC1)C1CCN(c2ccc3nnc(-c4ccccc4F)n3n2)CC1 | 693
17 | C[C@H]1CN(C(=O)Nc2ccc(F)cc2F)C[C@@H]1c1nc(-c2cccnc2)no1 | 770
18 | COc1cccc(-n2c(=O)c(C(=O)NC(C)c3ccccc3)c(O)c3cccnc32)c1 (stereo unspecified) | 1180
19 | CCN1C(=O)COc2ccc(-c3noc(CNS(=O)(=O)c4ccc(F)cc4)n3)cc21 | 860
20 | CS(=O)(=O)N1CCCc2cc(C(=O)Nc3ccc(Br)cc3)ccc21 | 951
21 | COc1ccccc1N1CCN(C(=O)C2CCN(c3c(C)n(C)c(=O)n(C)c3=O)CC2)CC1 | 718
22 | O=C(NC1CCCCCC1)c1ccc(CN2CCN(C3CCCC3)C(=O)C2=O)cc1 | 823

Row | SMILES | RP-LC retention time [s]
23 | CCCOc1ccc(C(=O)Nc2cnn(CC)c(=O)c2N2CCOCC2)cc1 | 954
24 | O=C(NCCc1ccccc1)NCCc1ccsc1 | 764
25 | O=C(CSc1ccc(N2CCN(c3ccc(F)cc3)CC2)nn1)NCc1ccco1 | 873
26 | COc1ccc(OC)c(S(=O)(=O)N2CCC(N3C[C@H](OC)[C@@H]3c3cccnc3)CC2)c1 | 619
27 | COc1cccc(CCC(=O)NC2(c3nc(C)no3)CCCCC2)c1 | 856
28 | CC(C)c1noc(-c2cc(=O)n(CC(=O)Nc3ccc(N(C)C)cc3)c3ccccc23)n1 | 737
29 | CC1CCC(NC(=O)c2nnn(Cc3cccc(F)c3)c2-n2cccc2)CC1 (stereo unspecified) | 1160
30 | Cc1ccc2c(Nc3cccc(C(C)C)c3)c(C(=O)N3CCC(C)CC3)cnc2n1 | 737
31 | C=CCN1C(=O)COc2ccc(-c3nc(NC(=O)c4cc(OC)cc(OC)c4)sc3C)cc21 | 1090
32 | CCn1cc(-c2nc(-c3ccc(OC)c(OC)c3)no2)c(=O)c2cc(F)ccc21 | 811
33 | COc1cc(OC)c(NC(=O)N2CCC(n3c(C)nc4cccnc43)CC2)cc1Cl | 711
34 | O=C(Cn1ccn2nc(-c3ccc(F)cc3)c(CO)c2c1=O)Nc1ccc2c(c1)OCCO2 | 786
35 | CNC(=O)c1nn(-c2ccc(F)c(F)c2)c(OC)cc1=O | 651
36 | Cn1cccc1Cc1nnc(SCC(=O)NCC2CCCO2)n1Cc1ccccc1 (stereo unspecified) | 741
37 | CCN(CC)c1nc(-c2ccccc2F)nc2ccccc12 | 700
38 | Cc1c(NC(=O)OC[C@@H]2COCCN2)cn2ncnc(Nc3ccc4c(cnn4Cc4cccc(F)c4)c3)c12 | 674
39 | Cc1noc(C)c1COc1ccccc1CN1CCC2(CCC2O)CC1 (stereo unspecified) | 621
40 | CCC(=O)N1CC(=O)N(CC)C2(CCOCC2)C1 | 561
41 | COc1ccccc1C(CNC(=O)c1cc(=O)c2ccccc2o1)N(C)C (stereo unspecified) | 606
42 | O=C(c1csc(-c2ccc(N3CCCC3)nc2)n1)N1CCCCCC1 | 937
43 | COc1ccc(-c2noc(C3CCCN3C(=O)c3cccnc3SC)n2)cc1 (stereo unspecified) | 907
44 | Cc1ccc(S(=O)(=O)N2CCC(n3cnnc3C)CC2)c(C)c1 | 713

Row | SMILES | RP-LC retention time [s]
45 | COc1ccc(CNC(=O)C2CCCN(c3nccnc3Sc3ccc(C)cc3)C2)c(OC)c1 (stereo unspecified) | 792
46 | O=c1cc[nH]c2c(Cl)cccc12 | 676
47 | COc1ccc(NC(=O)CSc2nccc(N3CCN(c4cccc(OC)c4)CC3)n2)cc1 | 735
48 | CCCc1nc(-c2ccnc(N3CCOCC3)c2)no1 | 749
49 | CCC(=O)N1CCc2sc(S(=O)(=O)N3CCN(c4ccccc4C)CC3)cc2C1 | 1030
50 | Cc1nc(-c2cc(S(=O)(=O)Nc3cccc(F)c3)c(C)s2)sc1C | 1060
51 | Cc1ccc(NC(=O)c2nc(C)oc2C)c(F)c1 | 946
52 | COc1cc(NC(=O)Nc2ccc3nc(N4CCN(C)CC4)cc(C)c3c2)cc(OC)c1OC | 574
53 | COc1ccc(NC(=O)c2c(O)c3cccnc3n(-c3ccccc3)c2=O)cc1OC | 800
54 | CC1=C(c2ccc(F)cc2)S(=O)(=O)N=C1N1CCC(NC(=O)CCC(C)C)CC1 | 844
55 | CCCN1CCN(C(=O)c2noc3c2CCCCC3)CC1 | 613
56 | COc1ccc(CNC(=O)C2(C)CCN(C(=O)Nc3ccc(C)c(Cl)c3)CC2)cc1 | 935
57 | N#Cc1c(NC(=O)c2cccnc2)sc2c1CCCCC2 | 834
58 | O=C(Nc1cccc(F)c1)c1c(O)c2cccnc2n(-c2ccc(F)cc2)c1=O | 1250
59 | Cc1ccc(NS(=O)(=O)c2cc3n(c2)CCN(C)C3=O)cc1F | 716
60 | CCOc1ccc2ncc(S(=O)(=O)c3ccc(Cl)cc3)c(N3CCN(C)CC3)c2c1 | 680
61 | COc1cccc(S(=O)(=O)N2CCC3(C2)C(=O)N(C)c2ccc(OC)cc23)c1 (stereo unspecified) | 904
62 | CCOc1ccccc1NC(=O)C1CCN(S(=O)(=O)c2ccc3c(c2)NC(=O)C(CC)O3)CC1 (stereo unspecified) | 953
63 | O=C(Cn1nc2n(c1=O)CCCCC2)NCc1ccc2c(c1)OCO2 | 756
64 | CCOC(=O)C1=C(CN2CCN(Cc3ccccc3)CC2)NC(=O)NC1c1ccc(OC(C)C)cc1 (stereo unspecified) | 713
65 | Cc1cccc(NC(=O)N2CCCC2c2nc(-c3cccc(C)c3)no2)c1 (stereo unspecified) | 598
66 | CCOc1ccc(C(=O)N2CCN(c3cc(-c4ccc(Cl)cc4)[nH]n3)CC2)cc1OCC | 916

Reference: the METLIN SMRT retention time set (Domingo-Almenara et al. 2019)
